Assay results published in EP2522328A1, “Use of resveratrol and ascorbyl-2-glucoside” (DSM IP Assets B.V., priority 2011, dated 2012).

Tested on: AZGP1
Experiment: Assessment of gene modulation in normal human epidermal melanocytes (NHEM), RT-qPCR on mRNA (PCR array mQPA H-Melanocyte-64)
Format: cell-based
Details: ascorbyl-2-glucoside 1 mg/ml
Protocol: Normal human epidermal melanocytes were cultivated for 24 hours. […] Cells were cultivated for additional 72 hours. All experimental conditions were performed in triplicate. At the end of the cultivation, the cells were harvested and washed with phosphate buffered saline (PBS) solution and immediately frozen at -80 °C. The expression of selected markers was analyzed using RT-qPCR method on mRNA extracted from cells layer for each treatment condition. The differential expression analysis was performed by PCR arrays of the screening format "mQPA H-Melanocyte-64", which focuses on 64 genes selected for their importance in pigmentation and melanocyte biology. Total RNA was extracted from each sample using TRI-Reagent®. The amount and quality of the RNA was evaluated using a lab-on-a-chip Bioanalyzer (Agilent technologies). Potential contaminants traces of DNA were removed […] The incorporation of fluorescence in amplified DNA was measured continuously during the PCR cycles. […] The value selected for RE calculations is the "output point" (Ct) of the fluorescence curve. For a given marker, the highest is the cycle number; the lowest, is the mRNA quantity. The RE value is expressed in arbitrary units (AU) according to the equation: (((1)/(2)))^NC x 10^6 [formula] Where NC is the number of cycles.

Which activation at 1000 µg/mL (Homo sapiens, Melanocyte, NHEM cells, 72 hours treatment, resveratrol 5 µg/ml, combination 5 µg/ml + 1 mg/ml, read-out: expression ratio compared to control for the gene AZGP1) does the source give for O=C1O[C@H]([C@@H](O)CO)C(O)=C1O[C@H]1O[C@H](CO)[C@@H](O)[C@H](O)[C@H]1O [Ascorbyl-2-glucoside, 2-O-[…]-D-glucopyranosyl-L-Ascorbic acid] here?
The activation at 1000 µg/mL was 3%.

What about the “down-regulation of AZGP1” value (compared to untreated cells, NEHM cells, resveratrol 5 micrograms/ml, combination 5 microg/ml + 1mg/ml) of the same compound?
The value was “no significant modulation”.
